The text below walks through data of article PMC6383948, “Evaluation of a class of isatinoids identified from a high-throughput screen of human kinase inhibitors as anti-Sleeping Sickness agents” (PLoS Neglected Tropical Diseases, 2019).

Where “and” joins values, the source holds several entries; their conditions need not be identical. Equal values may be shown once. Read-outs that look alike come from different tables or passages of the source.

In data set [1] the test system is S. mansoni adults and somules. Put plainly: S. mansoni phenotypic assay, adults and somules (severity score). Particulars: for activity against S. mansoni adults and/or somules: 10 μM; for Adult severity score (10 μM): adults; for Adult severity score (10 μM) / Somule severity score (10 μM): score 0-4; for Somule severity score (10 μM): somules. The class given is cell-based, Schistosoma mansoni (NMRI isolate). How it is done: Maintenance of the Schistosoma mansoni life cycle, preparation of somules (post-infective larvae) and adult worms (≥42-days-old), and co-incubation of these stages with test compounds were as described. An NMRI isolate of S. mansoni was used for all whole-organism screens.
Somules (40 units/well/96w round-bottomed plate) or adults (five paris/well/24w plate) were cultured in the presence of compounds at 10 µM and phenotypic changes observed as a function of time using an Zeiss Axiovert A1 inverted microscope (Table S4). A constrained nomenclature was used to describe the effects of compounds on parasites (changes in shape, motility and density). To generate a partially quantitative output for comparing drug effects, each descriptor was awarded a score of 1 and these were summed to a maximum score of 4 [7-10]: evidence of degeneracy or death was awarded the maximum score of 4. For adults specifically, damage to the tegument (outer surface) was also awarded a score of 4 based on the indication that damage to the patrasite’s surface is lethal in vivo [11]. Assays were performed twice and representative data are shown.

Data set [2] can be described thus: Shake-flask octanol-water Log D7.4. Particulars: pH 7.4, octanol-water shake-flask. The class given is physicochemical. How it is done: Shake-flask octanol-water distribution coefficient at pH 7.4 (Log D7.4). The aqueous solution used is 10 mM sodium phosphate pH 7.4 buffer. The method has been validated for Log D7.4 ranging from -2 to 5.0.
A short description of data set [3]: Mouse pharmacokinetics, blood and brain levels after IP dose. The class given is in vivo. Particulars: for Brain level: LLOQ = 25 ng/g; for AUC0-t / Cmax / Tmax: blood. How it is done:
NEU-4391 was administered intraperitoneally (IP) to two groups of female NMRI mice (Group 1 n = 3; Group 2 n = 6). The compound was prepared in 1% (v/v) DMSO:99% (v/v) 20% (w/v) sulfobutyl ether-beta-cyclodextrin (SBE-β-CD) (Captisol) in water and the dosing volume was 10 mL/kg for a total dose of 10 mg/kg. Food and tap water were available ad libitum. Following IP dosing, Group 1 blood samples were collected from the tail vein into capillary tubes containing K2EDTA at the following time-points: 0.0833, 0.25, 0.5, 1, 2, 4, 6, 8 and 24 h.
In order to obtain simultaneous blood and brain samples, Group 2 mice were placed under terminal anaesthetic (isoflurane) and blood samples (0.3 mL) collected from the retro-orbital sinus into K2EDTA tubes at 0.5 h (n = 3) and 4 h (n = 3) after compound administration. Immediately following blood sample collection, death was confirmed by cervical dislocation and the brain removed. Aliquots of each blood sample were diluted in an equal volume of water. Mouse brain samples were weighed, water was added at a 1/2 (w/v) ratio (brain/water), and then homogenized. Both blood and brain samples were stored -80°C until analysis.
Diluted blood and brain homogenates were processed under standard liquid-liquid extraction procedures using acetonitrile containing an internal standard (Nifedipine) and analyzed by LC-MS/MS. Non-compartmental analysis was performed using the Phoenix pharmacokinetic software version 1.4 (Certara) and Cmax, tmax, AUClast, AUC, and t1/2 were estimated.

The mark [4] stands for this setting: IP 10 mg/kg single dose, individual mice 001F-003F, 10 mg/kg.

In the case of `CN(C)S(=O)(=O)c1ccc(N/N=C2\C(=O)Nc3ccccc32)cc1` [NEU-2118, (Z)-N,N-Dimethyl-4-(2-(2-oxoindolin-3-ylidene)hydrazinyl)benzenesulfonamide], in data set [1], the “activity against S. mansoni adults and/or somules” value was “moderate and variable activity”. Moreover, the “Adult severity score (10 μM)” value in data set [1] (3h), in data set [1] (6h), in data set [1] (24h) and in data set [1] (48h) was 3 throughout. The “Somule severity score (10 μM)” value in data set [1] (24h) and in data set [1] (48h) was 0 each time. This compound had a log distribution coefficient (logD) in data set [2] of 3.4.
Consider `CNS(=O)(=O)c1ccc(N/N=C2\C(=O)Nc3ccccc32)cc1` [NEU-2124, (Z)-N-Methyl-4-(2-(2-oxoindolin-3-ylidene)hydrazinyl)benzenesulfonamide], for which the “activity against S. mansoni adults and/or somules” value in data set [1] was “moderate and variable activity”. For the same compound, the “Adult severity score (10 μM)” value in data set [1] (3h), in data set [1] (6h), in data set [1] (24h) and in data set [1] (48h) was 2 in each case. Further, the “Somule severity score (10 μM)” value in data set [1] (24h) came out at 1; in data set [1] (48h), 0. The log distribution coefficient (logD) in data set [2] stood at 2.8.
`CNS(=O)(=O)c1ccc(N/N=C2\C(=O)Nc3cccc(C=C(C)C)c32)cc1` [NEU-4391, (Z)-N-Methyl-4-(2-(4-(2-methylprop-1-en-1-yl)-2-oxoindolin-3-ylidene)hydrazinyl)benzenesulfonamide]: the Brain level entry in data set [3] (0.5 h after IP 10 mg/kg, individual mice N1-N3) was “<LLOQ”; in data set [3] (4.0 h after IP 10 mg/kg, individual mice N1-N3), “<LLOQ”. Also, the Blood level entry in data set [3] (0.5 h after IP 10 mg/kg, individual mice N1-N3, LLOQ = 25 ng/mL, 10 mg/kg) is “<LLOQ and 43.3 ng/mL”; in data set [3] (4.0 h after IP 10 mg/kg, individual mice N1-N3, LLOQ = 25 ng/mL) it was “<LLOQ”. Also, in data set [3] (IP 10 mg/kg, Fig 6A), the “Peripheral blood concentrations after 1 h” value is given as “below the lower limit of quantitation”. Further, the “concentration in the brain” value in data set [3] (IP 10 mg/kg, all time points) is listed as “below the limit of detection”. Moreover, the AUC0-t in data set [3] (setting [4]) is 34.5 ng·h/mL and 39.2 ng·h/mL; in data set [3] (female, NMRI, mouse, whole blood, ip, 10 mg/kg, IP 10 mg/kg single dose, individual mice 001F-003F, read-out: AUC0-t), 39.3 ng·h/mL; in data set [3] (female, NMRI, mouse, whole blood, ip, 10 mg/kg, IP 10 mg/kg, mean of n = 3, read-out: AUC0-t (mean)), 37.7 ng·h/mL. In addition, the highest concentration (Cmax) in data set [3] (setting [4]) was 45.0 ng/mL and 56.5 ng/mL; in data set [3] (female, NMRI, mouse, whole blood, ip, 10 mg/kg, IP 10 mg/kg single dose, individual mice 001F-003F, read-out: Cmax), 48.9 ng/mL; in data set [3] (female, NMRI, mouse, whole blood, ip, 10 mg/kg, IP 10 mg/kg, mean of n = 3, read-out: Cmax (mean)), 50.1 ng/mL; in data set [3] (female, NMRI, mouse, whole blood, ip, 10 mg/kg, IP 10 mg/kg, read-out: Cmax), 130 nM. Further, the Tmax in data set [3] (setting [4]) was 30 min; in data set [3] (female, NMRI, mouse, whole blood, ip, 10 mg/kg, IP 10 mg/kg single dose, individual mice 001F-003F, read-out: tmax), 15 min; in data set [3] (female, NMRI, mouse, whole blood, ip, 10 mg/kg, IP 10 mg/kg, n = 3, read-out: tmax (mean row, range)) it was 15 to 30 min. The concentration at 0.5 h came out at 50.7 ng/mL in data set [3] (female, NMRI, mouse, whole blood, ip, 10 mg/kg, 0.5 h after IP 10 mg/kg, individual mice N1-N3, LLOQ = 25 ng/mL, read-out: Blood level) and 47 ng/mL in data set [3] (female, NMRI, mouse, whole blood, ip, 10 mg/kg, 0.5 h after IP 10 mg/kg, read-out: Blood level (mean)).
